Reference: PubChem BioAssay AID248 (DTP/NCI, 2004)
Where “and” joins values, the source holds several entries; their conditions need not be identical. Equal values may be shown once. Toxic doses and inconclusive results are not listed. No stated cut-off is given here; in the data, active means T/C of 150% or more; inactive means T/C below 125%.

System: L1210 leukemia ip in BDF1 mice, survival T/C
Assay: NCI In Vivo Anticancer Drug Screen. Data for tumor model L1210 Leukemia (intraperitoneal) in B6D2F1 (BDF1) mice
Conditions: endpoint: mean survival time, higher = longer survival
How it was run: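 Tumor was transplanted into mice, which were then dosed with test compound or vehicle alone. Survival was recorded for each group, and the treated figure was expressed relative to the control figure.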

[1] = dose: 12.5 mg/kg/injection, schedule: Q01DX009 (ip), vehicle: saline
[2] = dose: 12.5 mg/kg/injection, schedule: Q04DX003 (ip), vehicle: saline
[3] = dose: 25.0 mg/kg/injection, schedule: Q01DX009 (ip), vehicle: saline
[4] = dose: 25.0 mg/kg/injection, schedule: Q04DX003 (ip), vehicle: saline
[5] = dose: 50.0 mg/kg/injection, schedule: Q01DX009 (ip), vehicle: saline
[6] = dose: 50.0 mg/kg/injection, schedule: Q04DX003 (ip), vehicle: saline
[7] = dose: 100.0 mg/kg/injection, schedule: Q01DX001 (ip), vehicle: saline
[8] = dose: 200.0 mg/kg/injection, schedule: Q01DX001 (ip), vehicle: saline
[9] = dose: 100.0 mg/kg/injection, schedule: Q01DX009 (ip), vehicle: saline with Tween-80
[10] = dose: 100.0 mg/kg/injection, schedule: Q04DX003 (ip), vehicle: saline
[11] = dose: 200.0 mg/kg/injection, schedule: Q01DX009 (ip), vehicle: saline with Tween-80
[12] = dose: 200.0 mg/kg/injection, schedule: Q04DX003 (ip), vehicle: saline
[13] = dose: 400.0 mg/kg/injection, schedule: Q01DX001 (ip), vehicle: saline
[14] = dose: 400.0 mg/kg/injection, schedule: Q04DX003 (ip), vehicle: saline
[15] = dose: 100.0 mg/kg/injection, schedule: Q04DX003 (ip), vehicle: gum acacia
[16] = dose: 200.0 mg/kg/injection, schedule: Q04DX003 (ip), vehicle: gum acacia
[17] = dose: 400.0 mg/kg/injection, schedule: Q04DX003 (ip), vehicle: gum acacia
[18] = dose: 100.0 mg/kg/injection, schedule: Q01DX001 (ip), vehicle: carboxymethylcellulose (CMC)
[19] = dose: 200.0 mg/kg/injection, schedule: Q01DX001 (ip), vehicle: carboxymethylcellulose (CMC)
[20] = dose: 400.0 mg/kg/injection, schedule: Q01DX001 (ip), vehicle: carboxymethylcellulose (CMC)

Measured: T/C

O=C(c1ccccc1)N1CC1
inactive: dose: 25.0 mg/kg/injection, schedule: Q01DX009 (ip), vehicle: water 95 % of control | dose: 50.0 mg/kg/injection, schedule: Q01DX009 (ip), vehicle: water 93 % of control | dose: 100.0 mg/kg/injection, schedule: Q01DX009 (ip), vehicle: water 86 % of control | dose: 200.0 mg/kg/injection, schedule: Q01DX009 (ip), vehicle: water 88 % of control | dose: 400.0 mg/kg/injection, schedule: Q01DX009 (ip), vehicle: water 90 % of control

COC(=O)c1ccccc1NC(=O)Nc1ccc(F)c([N+](=O)[O-])c1
inactive: dose: 25.0 mg/kg/injection, schedule: Q01DX009 (ip), vehicle: Klucel (hydroxypropylcellulose) (HPC) 109 % of control | dose: 50.0 mg/kg/injection, schedule: Q01DX009 (ip), vehicle: Klucel (hydroxypropylcellulose) (HPC) 103 % of control | dose: 100.0 mg/kg/injection, schedule: Q01DX009 (ip), vehicle: Klucel (hydroxypropylcellulose) (HPC) 93 % of control and 89 % of control | dose: 200.0 mg/kg/injection, schedule: Q01DX009 (ip), vehicle: Klucel (hydroxypropylcellulose) (HPC) 95 % of control | dose: 400.0 mg/kg/injection, schedule: Q01DX009 (ip), vehicle: Klucel (hydroxypropylcellulose) (HPC) 93 % of control

CCN(CC)CCC(CNC(=O)CN(CC)CC)(c1cccc2ccccc12)C(C)C (stereo not given)
inactive: [1] 98 % of control | [2] 94 % of control | [3] 93 % of control | [4] 110 % of control | [5] 90 % of control | [6] 104 % of control

CC(=O)NCCSC(=O)C(=O)SCCNC(C)=O
inactive: dose: 25.0 mg/kg/injection, schedule: Q01DX001 (ip), vehicle: saline 115 % of control | dose: 25.0 mg/kg/injection, schedule: Q01DX Z (ip), vehicle: saline 102 % of control | dose: 50.0 mg/kg/injection, schedule: Q01DX001 (ip), vehicle: saline 102 % of control | dose: 50.0 mg/kg/injection, schedule: Q01DX Z (ip), vehicle: saline 96 % of control | [7] 102 % of control | dose: 100.0 mg/kg/injection, schedule: Q01DX Z (ip), vehicle: saline 96 % of control | [8] 94 % of control and 96 % of control and 104 % of control | dose: 450.0 mg/kg/injection, schedule: Q01DX001 (ip), vehicle: saline 86 % of control

O=C(O)CSc1ccc(NC(=O)Nc2ccccc2F)cc1
inactive: [7] 90 % of control | [9] 92 % of control | [10] 100 % of control | [8] 88 % of control | [11] 89 % of control | [12] 94 % of control | [13] 92 % of control | dose: 400.0 mg/kg/injection, schedule: Q01DX009 (ip), vehicle: saline with Tween-80 86 % of control | [14] 92 % of control

CCOC(=S)SCCSC(=S)OCC
inactive: [7] 105 % of control | [8] 100 % of control | [13] 97 % of control

Cc1ccc(S(=O)(=O)Nc2ccc(C(=O)NC(CCC(=O)O)C(=O)O)cc2)cc1 (stereo not given)
inactive: [15] 95 % of control | [16] 98 % of control | [17] 95 % of control

CCN(N=O)c1ccc(/C=C2/C=Cc3ccccc32)cc1
inactive: [18] 95 % of control | [19] 90 % of control | [20] 101 % of control

CC(=O)NN=C(C)C
inactive: [3] 102 % of control | [5] 111 % of control | [6] 99 % of control | [10] 99 % of control | [12] 99 % of control

FC(F)(F)c1ccc2c(c1)N(CCCN1CC[N+]3(CCOCC3)CC1)c1ccccc1S2
inactive: dose: 6.25 mg/kg/injection, schedule: Q01DX009 (ip), vehicle: saline 97 % of control | [1] 95 % of control | [2] 114 % of control | [4] 91 % of control

CC1=CC(=O)OC(C)(C)C1
inactive: [10] 97 % of control | [12] 96 % of control | [14] 99 % of control

CCCCCCc1cc(N=Nc2ccc(S(=O)(=O)Nc3nccs3)cc2)c(O)cc1O
inactive: [18] 95 % of control | [19] 98 % of control | [20] 95 % of control

Cc1nc(Cl)c(Cl)[nH]1
inactive: [9] 97 % of control | [11] 111 % of control

CN(C)c1ccc2c(c1)Cc1cc(NC(=O)/C=C/C(=O)O)ccc1-2
inactive: [10] 112 % of control | [12] 93 % of control | [14] 91 % of control

Oc1ccc(O)c2c1CNCC2O (stereo not given)
inactive: [7] 97 % of control | [8] 104 % of control

CCc1ccc(NC(=O)Nc2ccc(Cl)cc2)cc1
inactive: dose: 100.0 mg/kg/injection, schedule: Q01DX009 (ip), vehicle: gum acacia 92 % of control | [15] 92 % of control | dose: 200.0 mg/kg/injection, schedule: Q01DX009 (ip), vehicle: gum acacia 89 % of control | [16] 92 % of control | dose: 400.0 mg/kg/injection, schedule: Q01DX009 (ip), vehicle: gum acacia 94 % of control | [17] 93 % of control

COC(=O)c1cc(=O)c2c(=O)[nH]c(=O)[nH]c2[nH]1
inactive: dose: 100.0 mg/kg/injection, schedule: Q04DX003 (ip), vehicle: Klucel (hydroxypropylcellulose) (HPC) 101 % of control | dose: 200.0 mg/kg/injection, schedule: Q04DX003 (ip), vehicle: Klucel (hydroxypropylcellulose) (HPC) 95 % of control | dose: 400.0 mg/kg/injection, schedule: Q04DX003 (ip), vehicle: Klucel (hydroxypropylcellulose) (HPC) 100 % of control

CC(C)(C)SCCO
inactive: dose: 100.0 mg/kg/injection, schedule: Q04DX002 (ip), vehicle: saline 105 % of control | dose: 200.0 mg/kg/injection, schedule: Q04DX002 (ip), vehicle: saline 99 % of control | dose: 400.0 mg/kg/injection, schedule: Q04DX002 (ip), vehicle: saline 96 % of control

O=C(O)C1Cc2ccccc2-c2ccccc21 (stereo not given)
inactive: dose: 75.0 mg/kg/injection, schedule: Q01DX001 (ip), vehicle: saline 102 % of control | dose: 150.0 mg/kg/injection, schedule: Q01DX001 (ip), vehicle: saline 88 % of control | dose: 300.0 mg/kg/injection, schedule: Q01DX001 (ip), vehicle: saline 100 % of control

C=CCN1C2C=C(c3ccccc3)CC1CCC2 (stereo not given)
inactive: dose: 12.5 mg/kg/injection, schedule: Q04DX003 (ip), vehicle: Klucel (hydroxypropylcellulose) (HPC) 100 % of control | dose: 25.0 mg/kg/injection, schedule: Q04DX003 (ip), vehicle: Klucel (hydroxypropylcellulose) (HPC) 96 % of control

Nc1nc2ncc(CNc3ccc(C(=O)NC(CCC(=O)O)C(=O)O)nc3)nc2c(=O)[nH]1 (stereo not given)
inactive: dose: 0.75 mg/kg/injection, schedule: Q01DX009 (ip), vehicle: alkali diluted with saline 105 % of control | dose: 1.5 mg/kg/injection, schedule: Q01DX009 (ip), vehicle: alkali diluted with saline 102 % of control | dose: 3.0 mg/kg/injection, schedule: Q01DX009 (ip), vehicle: alkali diluted with saline 111 % of control | dose: 6.0 mg/kg/injection, schedule: Q01DX009 (ip), vehicle: alkali diluted with saline 102 % of control | dose: 12.0 mg/kg/injection, schedule: Q01DX009 (ip), vehicle: alkali diluted with saline 100 % of control | dose: 18.0 mg/kg/injection, schedule: Q01DX009 (ip), vehicle: alkali diluted with saline 112 % of control | dose: 24.0 mg/kg/injection, schedule: Q01DX009 (ip), vehicle: alkali diluted with saline 108 % of control | dose: 36.0 mg/kg/injection, schedule: Q01DX009 (ip), vehicle: alkali diluted with saline 108 % of control | dose: 48.0 mg/kg/injection, schedule: Q01DX009 (ip), vehicle: alkali diluted with saline 118 % of control | dose: 75.0 mg/kg/injection, schedule: Q01DX001 (ip), vehicle: alkali diluted with saline 111 % of control | dose: 150.0 mg/kg/injection, schedule: Q01DX001 (ip), vehicle: alkali diluted with saline 105 % of control

C=CCn1c(SCc2ccccc2)nccc1=O
inactive: dose: 100.0 mg/kg/injection, schedule: Q04DX002 (ip), vehicle: Klucel (hydroxypropylcellulose) (HPC) 111 % of control | dose: 200.0 mg/kg/injection, schedule: Q04DX002 (ip), vehicle: Klucel (hydroxypropylcellulose) (HPC) 122 % of control | dose: 400.0 mg/kg/injection, schedule: Q04DX002 (ip), vehicle: Klucel (hydroxypropylcellulose) (HPC) 108 % of control
